According to US20070128217A1 (priority 2003, published 2007):

Assays:
[1] = test system: antibodies in sera from SARS patients (sera 1a, 1b, 2, 6, 37, 62, London, SARS-yellow, SARS-green); type: binding, human; set-up: Binding of serum 6 to linear peptides of protein X1 of SARS-CoV Urbani / Binding of serum 37 to linear peptides of protein X1 of SARS-CoV Urbani / Binding of serum 6 to looped/cyclic peptide (PEPSCAN-ELISA) / Binding of serum 37 to looped/cyclic peptide (PEPSCAN-ELISA) / Binding of serum 37 to looped/cyclic peptides of protein X1 of SARS-CoV Urbani / Binding of serum 6 to linear peptides of protein X2 / Binding of serum 37 to linear peptides of protein X2 / Binding of serum 37 to looped/cyclic peptides of protein X2 of SARS-CoV Urbani / Binding of serum 6 to linear peptides of protein M of SARS-CoV Urbani / Binding of serum 37 to linear peptides of protein M of SARS-CoV Urbani / Binding of serum 6 to looped/cyclic peptides of protein M of SARS-CoV Urbani / Binding of serum 37 to looped/cyclic peptides of protein M of SARS-CoV Urbani / Binding of serum 6 to linear peptides of protein X3 of SARS-CoV Urbani / Binding of serum 37 to linear peptides of protein X3 of SARS-CoV Urbani / Binding of serum 37 to looped/cyclic peptides of protein X3 of SARS-CoV Urbani / Binding of serum 6 to linear peptides of protein X4 of SARS-CoV Urbani / Binding of serum 37 to linear peptides of protein X4 of SARS-CoV Urbani / Binding of serum 37 to looped/cyclic peptides of protein X4 of SARS-CoV Urbani / Binding of serum 6 to linear peptides of protein X5 of SARS-CoV Urbani / Binding of serum 37 to linear peptides of protein X5 of SARS-CoV Urbani / Binding of serum 37 to looped/cyclic peptides of protein X5 of SARS-CoV Urbani / Binding of serum 6 to linear peptides of protein N of SARS-CoV Urbani / Binding of serum 37 to linear peptides of protein N of SARS-CoV Urbani / Binding of serum 6 to linear peptide (PEPSCAN-ELISA) / Binding of serum 1a to looped/cyclic peptides of protein N of SARS-CoV Urbani / Binding of serum 1b to looped/cyclic peptides of protein N of SARS-CoV Urbani / Binding of serum 2 to looped/cyclic peptides of protein N of SARS-CoV Urbani / Binding of serum 6 to looped/cyclic peptides of protein N of SARS-CoV Urbani / Binding of serum 37 to looped/cyclic peptides of protein N of SARS-CoV Urbani / Binding of serum 62 to looped/cyclic peptides of protein N of SARS-CoV Urbani / Binding of serum London to looped/cyclic peptides of protein N of SARS-CoV Urbani / Binding of serum SARS-green to looped/cyclic peptides of protein N of SARS-CoV Urbani: unit not given here
[2] = test system: recombinant human anti-SARS-CoV antibody 03-018; type: binding; set-up: Binding of antibody 03-018 to linear peptides of the N protein of SARS-CoV Urbani / Binding of antibody 03-018 to looped/cyclic peptides of the N protein of SARS-CoV Urbani: unit not given here
[3] = test system: rabbit serum obtained by immunizing a rabbit with the SARS-CoV strain Frankfurt 1; type: binding; set-up: Binding of a rabbit serum to linear peptides / Binding of a rabbit serum to looped peptides / Rabbit serum linear peptides / Rabbit serum looped peptides / Binding of a rabbit serum to linear peptides of protein N of SARS-CoV Urbani (Rabbit serum linear peptides) / Binding of a rabbit serum to looped/cyclic peptides of protein N of SARS-CoV Urbani (Rabbit serum looped peptides): unit not given here
[4] = test system: control sera (pooled serum of ten healthy LUMC hospital workers; commercial negative donor pooled serum from the Dutch bloodbank); type: binding, human

Row | Sequence | Binding of serum 1a to linear peptides of protein N of SARS-CoV Urbani [1] | Binding of serum 1a to looped/cyclic peptides of protein N of SARS-CoV Urbani [1] | Binding of serum 1b to linear peptides of protein N of SARS-CoV Urbani [1] | Binding of serum 1b to looped/cyclic peptides of protein N of SARS-CoV Urbani [1] | Binding of serum 2 to linear peptides of protein N of SARS-CoV Urbani [1] | Binding of serum 2 to looped/cyclic peptides of protein N of SARS-CoV Urbani [1] | Binding of serum 6 to linear peptides of protein N of SARS-CoV Urbani [1] | Binding of serum 6 to looped/cyclic peptides of protein N of SARS-CoV Urbani [1] | Binding of serum 37 to linear peptides of protein N of SARS-CoV Urbani [1] | Binding of serum 37 to looped/cyclic peptides of protein N of SARS-CoV Urbani [1] | Binding of serum 62 to linear peptides of protein N of SARS-CoV Urbani [1] | Binding of serum 62 to looped/cyclic peptides of protein N of SARS-CoV Urbani [1] | Binding of serum London to linear peptides of protein N of SARS-CoV Urbani [1] | Binding of serum London to looped/cyclic peptides of protein N of SARS-CoV Urbani [1] | Binding of serum SARS-green to linear peptides of protein N of SARS-CoV Urbani [1] | Binding of serum SARS-green to looped/cyclic peptides of protein N of SARS-CoV Urbani [1] | Binding of serum SARS-yellow to linear peptides of protein N of SARS-CoV Urbani [1] | Binding of serum SARS-yellow to looped/cyclic peptides of protein N of SARS-CoV Urbani [1] | Binding of antibody 03-018 to linear peptides of the N protein of SARS-CoV Urbani [2] | Binding of antibody 03-018 to looped/cyclic peptides of the N protein of SARS-CoV Urbani [2] | also measured
1 | HWPQIAQFAPSASAF | 0.3 | 0.5 | 0.2 | 0.3 | 0.2 | 0.5 | 0.2 | 0.4 | 0.8 | 0.8 | 0.7 | 1.0 | 0.6 | 0.6 | 0.4 | 0.6 | 0.8 | 0.6 | 0.1 | 0.2 | Binding of a rabbit serum to linear peptides of protein N of SARS-CoV Urbani (Rabbit serum linear peptides) [3]: 0.1; Binding of a rabbit serum to looped/cyclic peptides of protein N of SARS-CoV Urbani (Rabbit serum looped peptides) [3]: 0.7; Control Serum Blood-Bank Looped peptides [4]: 0.8; Control serum Blood-bank linear peptides [4]: 0.8; Control serum LUMC linear peptides [4]: 0.7; Control serum LUMC looped peptides [4]: 0.8
2 | IAQFAPSASAFFGMS | 0.2 | 0.4 | 0.1 | 0.2 | 0.1 | 0.4 | 0.1 | 0.3 | 0.6 | 0.7 | 0.5 | 0.6 | 0.4 | 0.4 | 0.2 | 0.4 | 0.6 | 0.4 | 0.1 | 0.3 | Binding of a rabbit serum to linear peptides of protein N of SARS-CoV Urbani (Rabbit serum linear peptides) [3]: 0.2; Binding of a rabbit serum to looped/cyclic peptides of protein N of SARS-CoV Urbani (Rabbit serum looped peptides) [3]: 0.4; Control Serum Blood-Bank Looped peptides [4]: 0.8; Control serum Blood-bank linear peptides [4]: 0.7; Control serum LUMC linear peptides [4]: 0.6; Control serum LUMC looped peptides [4]: 0.6
3 | IGMEVTPSGTWLTYH | 0.2 | 0.5 | 0.1 | 0.3 | 0.1 | 0.5 | 0.2 | 0.3 | 0.6 | 0.8 | 0.6 | 1.0 | 0.5 | 0.6 | 0.3 | 0.7 | 0.5 | 0.5 | 0.1 | 0.2 | Binding of a rabbit serum to linear peptides of protein N of SARS-CoV Urbani (Rabbit serum linear peptides) [3]: 0.1; Binding of a rabbit serum to looped/cyclic peptides of protein N of SARS-CoV Urbani (Rabbit serum looped peptides) [3]: 0.6; Control Serum Blood-Bank Looped peptides [4]: 0.8; Control serum Blood-bank linear peptides [4]: 0.8; Control serum LUMC linear peptides [4]: 0.6; Control serum LUMC looped peptides [4]: 0.8
